Data taken from PubChem BioAssay (NCI).
Values joined by “and” are separate entries in the source; they are usually repeats but may differ in a detail not shown here. Identical values can stand only once.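 Each compound was tested at five concentrations against cells in 96-well plates for 48 hours. GI50 marks 50% less growth. At the TGI there is no net growth.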

Columns and labels:
Experiment in all cases: NCI tumour cell line growth inhibition, 48 h
SW-620 colon = system: SW-620 colon
BT-549 breast = system: BT-549 breast
SK-MEL-5 melanoma = system: SK-MEL-5 melanoma
786-0 renal = system: 786-0 renal
SR leukemia = system: SR leukemia
SNB-75 CNS = system: SNB-75 CNS
SK-MEL-28 melanoma = system: SK-MEL-28 melanoma
HOP-92 NSCLC = system: HOP-92 NSCLC
HS 578T breast = system: HS 578T breast
UACC-257 melanoma = system: UACC-257 melanoma

| Structure (SMILES) | TGI (SW-620 colon) | TGI (BT-549 breast) | TGI (SK-MEL-5 melanoma) | TGI (786-0 renal) | TGI (SR leukemia) | TGI (SNB-75 CNS) | TGI (SK-MEL-28 melanoma) | TGI (HOP-92 NSCLC) | TGI (HS 578T breast) | TGI (UACC-257 melanoma) | GI50 (SW-620 colon) | GI50 (BT-549 breast) | GI50 (SK-MEL-5 melanoma) | GI50 (786-0 renal) | GI50 (SR leukemia) | GI50 (SNB-75 CNS) | GI50 (SK-MEL-28 melanoma) | GI50 (HOP-92 NSCLC) | GI50 (HS 578T breast) | GI50 (UACC-257 melanoma) |
| --- | --- | --- | --- | --- | --- | --- | --- | --- | --- | --- | --- | --- | --- | --- | --- | --- | --- | --- | --- | --- |
| CC(C)COC(c1ccc2c(c1)OCO2)C(C)Br (stereo not given) | > 100 µM | > 100 µM | 36.4 µM | 62.3 µM | 46.1 µM | 55.7 µM | > 100 µM | 68.8 µM | 64.6 µM | 55.5 µM | – | – | – | – | – | – | – | – | – | – |
| CCN1C(=O)N(CC)C2C1NN=c1s/c(=C\c3ccc(OC)cc3)c(=O)n12 (stereo not given) | > 100 µM | > 25.1 µM | 1.64 µM | > 100 µM | – | 2.84 µM | > 100 µM | > 100 µM | > 100 µM | > 100 µM | 0.136 µM | 0.288 µM | 0.192 µM | 0.647 µM | 0.0444 µM | 0.0442 µM | 0.953 µM | 3.25 µM | 0.219 µM | > 100 µM |
| Oc1cccc(-c2nc(-c3ccccc3)[nH]c2-c2ccncc2)c1 | > 23.4 µM | > 25 µM | 14.7 µM | > 25 µM | > 25 µM | > 23.7 µM | > 18.5 µM | 24.2 µM | > 25 µM | 14 µM | 9.39 µM | > 25 µM | 3.59 µM | 9.11 µM | 11.3 µM | 9.93 µM | 2.03 µM | 5.98 µM | 10.2 µM | 2.97 µM |
| COC(=O)c1ccc2c(C(=Nc3ccc(N(C)C(=O)CN4CCN(C)CC4)cc3)c3ccccc3)c(O)[nH]c2c1 | 4.14 µM | 22 µM and 29.7 µM | 9.86 µM and 6.51 µM | 6.6 µM and 4.64 µM | > 44.7 µM | 9.71 µM and 7.71 µM | 3.35 µM and 3.5 µM | 12.7 µM and 15 µM | – | 4.48 µM and 3.1 µM | 1.87 µM | 6.6 µM and 11.7 µM | 3.94 µM and 2.32 µM | 1.93 µM and 1.47 µM | 2.5 µM | 0.385 µM and 0.32 µM | 1.77 µM and 1.96 µM | 0.69 µM and 1.56 µM | 0.546 µM and 0.648 µM | 1.83 µM and 1.54 µM |
| CCOC(=O)c1cc(-c2ccccc2)[nH]c1N/N=C/c1c(Cl)cccc1Cl | > 81.2 µM | 18.9 µM | 14.1 µM | 49 µM | 10.2 µM | > 39.6 µM | > 75 µM | 62.4 µM | 37.2 µM | > 100 µM | 0.433 µM | 1.24 µM | 0.706 µM | 1.39 µM | 0.413 µM | 1.53 µM | 3.35 µM | 2.02 µM | 0.538 µM | 49.2 µM |
| C#Cc1ccc(-n2c(/C=C/c3ccc4ccccc4c3)nc3ncccc3c2=O)cc1 | – | 5.45 µM | 2.52 µM | > 100 µM | > 100 µM | > 100 µM | > 100 µM | 6.89 µM | > 100 µM | – | – | 1.98 µM | 1.16 µM | 4.08 µM | 1.4 µM | 2.95 µM | 4.33 µM | 1.63 µM | 7.62 µM | – |
| O=c1[nH]c(SCc2ccccc2[N+](=O)[O-])nc2nc[nH]c12 | > 100 µM | > 100 µM | > 100 µM | > 100 µM | > 100 µM | > 100 µM | > 100 µM | > 100 µM | > 100 µM | > 100 µM | – | – | – | – | – | > 100 µM and 49.5 µM | – | – | – | – |
| CNCCNc1nc2ccccc2c2c(=O)c3cccc(C)c3sc12 | 1.92 µM | 12.1 µM | 12.6 µM | 11.5 µM | 2.51 µM | 8.49 µM | 10.5 µM | 10.8 µM | 14.2 µM | 1.95 µM | 0.915 µM | 5.34 µM | 6.14 µM | 4.07 µM | 0.94 µM | 1.14 µM | 4.08 µM | 1.69 µM | 5.07 µM | 0.944 µM |
| CCCc1n(Cc2ccc3ccccc3n2)cc[n+]1Cc1ccc2ccccc2n1 | 25 µM | 8 µM | 2.36 µM | 24.2 µM | 12.7 µM | 8.7 µM | 15.8 µM | 4.18 µM | 23 µM | 4.84 µM | 3.63 µM | 1.3 µM | 0.866 µM | 11.2 µM | 0.635 µM | 1.46 µM | 1.52 µM | 0.56 µM | 3.54 µM | 0.778 µM |
| N#Cc1ccc(/C=C/C(=O)c2ccccc2)cc1 | 7.73 µM and 3.45 µM | 29.3 µM and 30.5 µM | 26.9 µM and 25.4 µM | > 52.2 µM and 29.2 µM | 6.11 µM | 27.6 µM and 27.5 µM | 28.8 µM and 14.9 µM | 65.5 µM and 39 µM | 50.9 µM and 5.64 µM | 26.4 µM and 29.5 µM | 2.72 µM and 1.77 µM | 15.2 µM and 16.7 µM | 14 µM and 12.6 µM | 15.9 µM and 14.6 µM | 1.88 µM and 1.52 µM | 14.5 µM and 13.9 µM | 15.5 µM and 5.18 µM | 16.9 µM and 17.6 µM | 18.3 µM and 2.13 µM | 13.6 µM and 15.6 µM |
| Cc1cc2c(cc1Cl)N1C(=O)NS(=O)(=O)N=C1NS2(=O)=O | > 100 µM | > 100 µM | > 100 µM | > 100 µM | > 100 µM | > 100 µM | > 100 µM | > 100 µM | > 100 µM | > 100 µM | > 100 µM | > 100 µM | > 100 µM | > 100 µM | > 100 µM | > 100 µM | > 100 µM | > 100 µM | > 100 µM | > 100 µM |
| CC(=O)C(C=O)C(C)=O.CC(=O)CC(C)=O.CC(=O)CC(C)=O.[Ru] | 69 µM | 69.5 µM | 2.1 µM | > 100 µM | 92.6 µM | > 100 µM | > 100 µM | 94.1 µM | 4.2 µM | > 100 µM | 15.6 µM | 7.27 µM | 0.0279 µM | 37.3 µM | 18.2 µM | > 100 µM | 48.8 µM | 17.4 µM | 0.0635 µM | 32.9 µM |
| CC[C@@]1(O)C(=O)NCc2c1cc1n(c2=O)Cc2cc3c(NC(C)=O)cccc3nc2-1 | > 100 µM | > 100 µM | > 100 µM | > 100 µM | > 100 µM | > 100 µM | > 100 µM | > 100 µM | > 100 µM | > 100 µM | > 86.6 µM | > 100 µM | > 100 µM | > 100 µM | > 100 µM | > 100 µM | > 100 µM | > 100 µM | > 100 µM | > 100 µM |
